Experimental data from patent US20180280385A1, “NINTEDANIB FOR USE IN METHODS FOR THE TREATMENT OF MUSCULAR DYSTROPHY” (Boehringer Ingelheim International GmbH, priority 2017, published 2018).

Legend:
animal model of DMD = conditions: literature (Bizario 2009; Huang 2009; Ito 2013); cited from earlier work
mdx mice [1] = assay: Hanging wire test in mdx mice, 2nd study; format: in vivo, mouse; conditions: mdx mice from 6 weeks of age, 60 mg/kg once daily intragastrically
Method: The treatment of the mdx mice with nintedanib started at an age of 10 months in the 1st study and at 6 weeks in a 2nd study. Treatment duration was 4 weeks in the 1st study and 7 weeks in the 2nd study. Nintedanib was used at a dose of 60 mg/kg once daily administered intragastrically via gavage in both studies. In the 2nd study, 7 mdx mice were treated with nintedanib, 5 mdx mice with the vehicle as placebo and no WT control was included as unaffected, untreated control animals. At the end of the 2nd study, a hanging wire test was performed. In the 2nd study a so called “hanging wire” test was performed (see section Examples and Experimental Data; Rabl et al., BMC Neurosci 2017, 18, 22). This test can be used to assess global “subacute” muscle function and coordination over time in young and old mdx mice. The longest suspension time (LST) and the “fall and reaches” score (FRS) were recorded before the start of the treatment period and after 7 weeks of treatment with nintedanib. […]

mdx mice [2] = assay: Collagen I expression by western blotting in muscle tissue of mdx mice, 1st study; format: in vivo, mouse; conditions: western blot, normalized to alpha-tubulin; versus mdx mice; 60 mg/kg once daily, 4 weeks
Method: The treatment of the mdx mice with nintedanib started at an age of 10 months in the 1st study and at 6 weeks in a 2nd study. Treatment duration was 4 weeks in the 1st study and 7 weeks in the 2nd study. Nintedanib was used at a dose of 60 mg/kg once daily administered intragastrically via gavage in both studies. In the 1st study, 7 mdx mice were treated with nintedanib, 5 mdx mice with the vehicle as placebo and 5 C57Bl6/mice (=wild type=WT) were used as unaffected, untreated control animals. At the end of the 1st study, electrophysiological examinations using electroneurography and electromyography and a histological analysis were performed. In addition, the level of collagen I expression was investigated using western blot in 4 mice of each test group.

mdx mice [3] = assay: Electromyography (percentage of small, medium and large MUAPs) in mdx mice, 1st study; format: in vivo, mouse; conditions: mdx mice aged 10 months, 60 mg/kg once daily intragastrically, 4 weeks
Text: (§1) The mdx mouse is a well characterized and widely used animal model for drug tests for DMD (Bulfield et al., Proc Natl Acad Sci USA 1984, 81, 1189-92). Mdx mice spontaneously develop a pathology resembling aspects of the human disease. They present cycles of degeneration and regeneration in the limb muscles and a progressive degeneration and fibrosis in the diaphragm (Coirault et al., J Appl Physiol 2003, 94, 1744-50). The first wave of degeneration peaks in the fourth week of life. At day 21, muscular lesions can be observed, including myofiber necrosis, leaking myofibers as a consequence of injuries to the sarcolemma, high levels of serum creatine kinase, and the presence of large areas of inflammation, connective tissue, and fat (Collins and Morgan, Int J Exp Pathol 2003, 84, 165-72; Grounds et al., Neurobiol Dis 2008, 31, 1-19). Compulsory physical activity can be applied to exacerbate the muscular degeneration during this phase (De Luca et al., Am J Pathol 2005, 166, 477-89; Grounds et al., Neurobiol Dis 2008, 31, 1-19). The treatment of the mdx mice with nintedanib started at an age of 10 months in the 1st study and at 6 weeks in a 2nd study. […] In the electromyography the percentage of small, medium and large motor unit action potentials (MUAPs) were recorded (Gordon et al., Can J Physiol Pharmacol 2004, 82, 645-661).

mdx mice [4] = assay: Electroneurography (amplitude of motor evoked potentials / CMAP) in mdx mice, 1st study; format: in vivo, mouse; conditions: mdx mice aged 10 months, 60 mg/kg once daily intragastrically, 4 weeks; versus non-treated mdx mice; statistically significant in tibialis anterior
Text: as §1, with “group of” for “electromyography”, “nintedanib-treated mdx mice, an increase in the amplitude” for “percentage”, “the” for “small, medium and large”, “evoked” for “unit action”, “in all nerves studied was detected in comparison to non-treated mdx mice (FIG. 1A-C). […]” for “(MUAPs) were recorded (Gordon et al., Can J Physiol Pharmacol 2004, 82, 645-661).”

mdx mice [5] = assay: Histological analysis of muscular fibrosis incl. immunofluorescent staining for collagen VI in mdx mice, 1st study; format: in vivo, mouse
Method: The treatment of the mdx mice with nintedanib started at an age of 10 months in the 1st study and at 6 weeks in a 2nd study. Treatment duration was 4 weeks in the 1st study and 7 weeks in the 2nd study. Nintedanib was used at a dose of 60 mg/kg once daily administered intragastrically via gavage in both studies.
In the 1st study, 7 mdx mice were treated with nintedanib, 5 mdx mice with the vehicle as placebo and 5 C57Bl6/mice (=wild type=WT) were used as unaffected, untreated control animals. At the end of the 1st study, electrophysiological examinations using electroneurography and electromyography and a histological analysis were performed. In addition, the level of collagen I expression was investigated using western blot in 4 mice of each test group.
At the end of the 1st study, the diaphragm from non-treated mdx mice had increased fibrotic tissue areas, compared to WT mice, and inflammatory infiltrates.
The fibrotic area of the muscles was assessed using immunofluorescent staining for collagen VI (Col VI). 8 photographs from different muscle sections of the quadriceps, tibialis anterior and diaphragm were randomly taken. […] The reduction of 7% by nintedanib treatment was statistically significant (p<0.001) (FIG. 3A).

Row | Structure (SMILES) | efficacy in an animal model of DMD (animal model of DMD) | "fall and reaches" score (FRS) (mdx mice [1]; 7 week observation period, decreased in vehicle-treated mice) | longest suspension time (LST) (mdx mice [1]; after 7 weeks of treatment versus before start) | collagen I (Col I) expression in the diaphragm (mdx mice [2]) | collagen I (Col I) expression in the tibialis anterior (mdx mice [2]) | large MUAPs (mdx mice [3]) | percentage of small MUAPs (mdx mice [3]) | amplitude of the motor evoked potentials (CMAP) in all nerves studied (tibialis anterior, Gastrocnemius, Plantar muscle) (mdx mice [4]) | reduction of mean Col VI-stained fibrotic area of the diaphragma by treatment (mdx mice [5]; difference to non-treated mdx mice, p<0.001) [%] | inflammatory infiltrates in the diaphragm (histology) (mdx mice [5]; mdx mice aged 10 months, 60 mg/kg once daily intragastrically, 4 weeks) | fibrotic area of the diaphragm (histology) (mdx mice [5]; mdx mice aged 10 months, 60 mg/kg once daily intragastrically, 4 weeks, versus non-treated mdx mice) | Col VI staining in tibialis anterior sections (mdx mice [5]; mdx mice aged 10 months, 60 mg/kg once daily, 4 weeks, non-treated mdx 21.4%, p=0.06, not statistically significant) [%] | Col VI staining in quadriceps sections (mdx mice [5]; mdx mice aged 10 months, 60 mg/kg once daily, 4 weeks, non-treated mdx 25.4%, p=0.03) [%] | mean fibrotic area stained for Col VI on the diaphragma (mdx mice [5]; mdx mice aged 10 months, 60 mg/kg once daily, 4 weeks, non-treated mdx 57.8%, p<0.001) [%]
1 | Cc1ccc(NC(=O)c2ccc(CN3CCN(C)CC3)cc2)cc1Nc1nccc(-c2cccnc2)n1 [imatinib] | had shown efficacy |  |  |  |  |  |  |  |  |  |  |  |  | 
2 | COC(=O)c1ccc2c(c1)NC(=O)/C2=C(\Nc1ccc(N(C)C(=O)CN2CCN(C)CC2)cc1)c1ccccc1 [nintedanib, Nintedanib] |  | remained nearly constant | increased | statistically significant decrease | statistically significant decrease | increase | normalized | increase | 7 | not observed | clearly reduced | 18.9 | 23.1 | 50.8
